The values that follow come from US6342502B1, “Thieno[2,3-d]pyrimidine diones and their use in the treatment of reversible obstructive airways diseases” (AstraZeneca AB, priority 1997, dated 2002).

Usually melting point stands for the temperature, or range, at which the solid turns liquid. For `COC(=O)CCCS(=O)(=O)c1c(Cc2cccc3ccccc23)sc2c1c(=O)n(C)c(=O)n2CC(C)C` [Example 10, Methyl 4-[(1,2,3,4-tetrahydro-3-methyl-1-(2-methylpropyl)-6-(1-naphthalenylmethyl)-2,4-dioxothieno[2,3-d]pyrimidin-5-yl)sulfonyl]butanoate], the melting point lay in the range of 122 to 124 °C. The compound `CC(C)Cn1c(=O)n(C)c(=O)c2c(C(=O)NCCO)c(Cc3cccc4ccccc34)sc21` [Example 16, 1,2,3,4-Tetrahydro-N-(2-hydroxyethyl)-3-methyl-1-(2-methylpropyl)-6-(1-naphthalenylmethyl)-2,4-dioxothieno[2,3-d]pyrimidine-5-carboxamide] showed a melting point of 193 to 194 °C.

Take `CC(C)Cn1c(=O)n(C)c(=O)c2c(Sc3cccc[n+]3[O-])c(Cc3cccc4ccccc34)sc21` [Example 38, 2-{[1,2,3,4-Tetrahydro-3-methyl-1-(2-methylpropyl)-6-(1-naphthalenylmethyl)-2,4-dioxothieno[2,3-d]pyrimidin-5-yl]thio}pyridine N-oxide]: the melting point was 228 to 229 °C. Then `CC(=O)Nc1cccc(C(=O)Nc2ccc(Cc3cc4c(=O)n(C)c(=O)n(CC(C)C)c4s3)cc2)c1` [Example 94], with 230 °C; and `CC(C)Cn1c(=O)n(C)c(=O)c2c(S(=O)(=O)c3cccc(O)c3)c(Cc3cccc4ccccc34)sc21` [Example 29], with 209 to 210 °C; and `CC(=O)NCCCSc1c(Cc2cccc3ccccc23)sc2c1c(=O)n(C)c(=O)n2CC(C)C` [Example 41], with 114 to 117 °C.

The compound `CC(C)Cn1c(=O)n(C)c(=O)c2c(Sc3ccc(N)cc3)c(Cc3cccc4ccccc34)sc21` [Example 36, 5-[(4-Aminophenyl)thio]-3-methyl-1-(2-methylpropyl)-6-(1-naphthalenylmethyl)thieno[2,3-d]pyrimidine-2,4-(1H, 3H)-dione] returned a melting point of 177 to 178 °C. As for `CC(C)Cn1c(=O)n(C)c(=O)c2c(NC(=O)NCCO)c(Cc3cccc4ccccc34)sc21` [Example 48], the melting point fell in the range of 227 to 228 °C. Then `CC(C)Cn1c(=O)n(C)c(=O)c2c(Sc3ccc(N)cn3)c(Cc3cccc4ccccc34)sc21` [Example 87, 5-[(5-Amino-2-pyridinyl)thio]-3-methyl-1-(2-methylpropyl)-6-(1-naphthalenylmethyl)thieno[2,3-d]pyrimidine-2,4(1H,3H)-dione], with 208 to 209 °C. Then `CC(C)Cn1c(=O)n(C)c(=O)c2cc(C(O)c3cccc(F)c3)sc21` (stereo not shown) [Example 51, 6-[(1-Hydroxy-1-(3-fluorophenyl))methyl]-3-methyl-1l-(2-methylpropyl)thieno[2,3-d]pyrimiidine-2,4-(1H, 3H)-dione], with 54 °C. With `C=C(C)Cn1c(=O)n(C)c(=O)c2cc(Cc3ccc(OC)cc3)sc21` [Example 2, 6-(4-Methoxyphenylmethyl)-3-methyl-1-(2-methyl-2-propenyl)thieno[2,3-d]pyrimidine-2,4(1H,3H)-dione] the figure was 111 °C; with `CC(C)Cn1c(=O)n(C)c(=O)c2c(S(=O)(=O)CCCC(=O)O)c(Cc3cccc4ccccc34)sc21` [Example 11, 4-[(1,2,3,4-Tetrahydro-3-methyl-1-(2-methylpropyl)-6-(1-naphthalenylmethyl)-2,4-dioxothieno[2,3-d]pyrimidin-5-yl)sulfonyl]butanoic acid], 174 to 181 °C; with `COC(=O)CCCSc1c(Cc2cccc3ccccc23)sc2c1c(=O)n(C)c(=O)n2CC(C)C` [Example 7, Methyl 4-[(1,2,3,4-tetrahydro-3-methyl-1-(2-methylpropyl)-6-(1-naphthalenylmethyl)-2,4-dioxothieno[2,3-d]pyrimidin-5-y)thio]butanoate], 111 to 112 °C.

The compound `CC(C)Cn1c(=O)n(C)c(=O)c2c(SCCCN=[N+]=[N-])c(Cc3cccc4ccccc34)sc21` [Example 39, 5-[(3-Azidopropyl)thio]-3-methyl-1-(2-methylpropyl)-6-(1-naphthalenylmethyl)thieno[2,3-d]pyrimidine-2,4(1H,3H)-dione] had a melting point of 94 to 96 °C. `CC(C)Cn1c(=O)n(C)c(=O)c2c(SCCCO)c(Cc3cccc(F)c3)sc21` [Example 86] returned a melting point of 99 to 100 °C.

In turn, `CC(C)Cn1c(=O)n(C)c(=O)c2c(C(=O)N(C)C)c(Cc3ccccc3)sc21` [Example 89, 1,2,3,4-Tetrahydro-3,N,N-trimethyl-1-(2-methylpropyl)-6-phenylmethy-2,4-dioxothieno[2,3-d]pyrimidine-5-carboxamide] returned a melting point of 144 to 146 °C. With `CC(C)Cn1c(=O)n(C)c(=O)c2cc(C(O)c3ccc([N+](=O)[O-])cc3)sc21` (stereo not shown) [Example 90, 6-[1-Hydroxy-(4-nitrophenyl)methyl]-3-methyl-1-(2-methylpropyl)thieno[2,3-d]pyrimidin-2,4(1H,3H)-dione] the figure was 127 °C; with `CC(C)Cn1c(=O)n(C)c(=O)c2c(Sc3cccc(N(S(C)(=O)=O)S(C)(=O)=O)c3)c(Cc3cccc4ccccc34)sc21` [Example 32, 5-{[3-{(Bis-methanesulfonyl)amino}phenyl]thio}-3-methyl-1-(2-methylpropyl)-6-(1-naphthalenylmethy)theino[2,3d]pyrimidine-2,4(1H, 3H)-dione], 216 to 217 °C.

In the case of `CC(=O)Nc1cccc(Sc2c(Cc3cccc4ccccc34)sc3c2c(=O)n(C)c(=O)n3CC(C)C)c1` [Example 34, 5-[(3-Acetamidophenyl)thio]-3-methyl-1-(2-methylpropyl)-6-(1-naphthalenylmethyl)thieno[2,3-d]pyrimidine-2,4-(1H, 3H)-dione], the melting point was 173 to 174 °C. As to `CC(C)Cn1c(=O)n(C)c(=O)c2c(Sc3ccc([N+](=O)[O-])cn3)c(Cc3cccc4ccccc34)sc21` [Example 37, 3-Methyl-1-(2-methylpropyl)-6-(1-naphthalenylmethyl)-5-[(5-nitropyridin-2-yl)thio]thieno[2,3-d]pyrimidine-2,4-(1H, 3H)-dione], the melting point was 200 to 201 °C. With `CC(C)Cn1c(=O)n(C)c(=O)c2cc(C3OC(=N)c4ccccc43)sc21` (stereo not shown) [Example 81, 6-(3-Imino-1,3-dihydro-benzo[c]furan-1-yl)-3-methyl-1-(2-methylpropyl)thieno[2,3-d]pyrimidine-2,4(1H, 3H)-dione] the figure was 152 °C; with `CC(C)Cn1c(=O)n(C)c(=O)c2cc(Cc3ccc(N)cc3)sc21` [Example 92, 6-(4-Aminophenylmethyl)-3-methyl-1-(2-methylpropyl)thieno[2,3-d]pyrimidine-2,4-(1H, 3H)-dione], 104 °C. With `CC(C)Cn1c(=O)n(C)c(=O)c2c(Sc3cccc(O)c3)c(Cc3cccc4ccccc34)sc21` [Example 27, 5-[(3-Hydroxyphenyl)thio]-3-methyl-1-(2-methylpropyl)-6-(1-naphthalenylmethyl)thieno[2,3-d]pyrimidine-2,4-(1H,3H)-dione] the figure was 200 to 201 °C.

As to `COC(=O)Nc1cccc(Sc2c(Cc3cccc4ccccc34)sc3c2c(=O)n(C)c(=O)n3CC(C)C)c1` [Example 33], the melting point lay within 167 to 168 °C. With `CC(C)Cn1c(=O)[nH]c(=O)c2cc(Cc3cccc4ccccc34)sc21` [Example 3, 1-(2-Methylpropyl)-6-(1-naphthalenylmethyl)thieno[2,3-d]pyrimidine-2,4(1H,3H)-dione] the figure was 189 to 190 °C; with `CC(C)Cn1c(=O)n(C)c(=O)c2c(Sc3cccc(N)c3)c(Cc3cccc4ccccc34)sc21` [Example 31, 5-[(3-Aminophenyl)thio]-3-methyl-1-(2-methylpropyl)-6-(1-naphthalenylmethyl)-thieno[2,3-d]pyrimidine-2,4-(1H, 3H)-dione], 149 to 150 °C; with `CC(C)Cn1c(=O)n(C)c(=O)c2c(SCCC(C)O)c(Cc3cccc4ccccc34)sc21` (racemic) [Example 85, (±)-5-[(3-Hydroxybutyl)thio]-3-methyl-1-(2-methylpropyl)-6-(1-naphthalenylmethyl)thieno2,3-d]pyrimidine-2,4(1H,3H)-dione], 162 to 163 °C.

In turn, `CC(C)n1c(=O)n(C)c(=O)c2cc(Cc3ccccc3)sc21` [Example 13, 3-Methyl-1-(1-methylethyl)-6-(phenylmethyl)thieno[2,3-d]pyrimidine-2,4(1H,3H)-dione] displayed a melting point of 91 to 93 °C.

The compound `CC(C)Cn1c(=O)n(C)c(=O)c2cc(Cc3ccccc3)sc21` [Example 12, 6-Benzyl-3-methyl-1-(2-methylpropyl)thieno[2,3-d]pyrimidine-2,4(1H,3H)-dione] gave a melting point of 72 to 73 °C. With `CC(C)Cn1c(=O)n(C)c(=O)c2cc(Cc3cccc(F)c3)sc21` [Example 52, 6-[(3-Fluorophenyl)methyl]-3-methyl-1-(2-methylpropyl)thieno[2,3-d]pyrimidine-2,4-(1H, 3H)-dione] the figure was 76 to 78 °C. Consider `CC(C)Cn1c(=O)n(C)c(=O)c2c(Sc3ccccn3)c(Cc3cccc4ccccc34)sc21` [Example 5, 3-Methyl-1-(2-methylpropyl)-6-(1-naphthalenylmethyl)-5-[(2-pyridinyl)thio]thieno[2,3-d]pyrimidine-2,4(1H,3H)-dione], for which the melting point is 148 to 149 °C.

Take `CC(C)Cn1c(=O)n(C)c(=O)c2cc(Cc3ccccc3C(N)=O)sc21` [Example 82, 2-[(1,2,3,4-tetrahydro-3-methyl-1-(2-methylpropyl)-2,4-dioxothieno[2,3-d]pyrimidin-6-yl)methyl]benzamido]: the melting point is 183 °C. The compound `CC(C)Cn1c(=O)n(C)c(=O)c2c(NC(=O)OCCO)c(Cc3cccc4ccccc34)sc21` [Example 49, 2-Hydroxyethyl [1,2,3,4-tetrahydro-3-methyl-1-(2-methylpropyl)-6-(1-naphthalenylmethyl)-2,4-dioxothieno[2,3-d]pyrimidin-5-yl]carbamate] showed a melting point of 201 to 202 °C.

As to `CC(C)Cn1c(=O)n(C)c(=O)c2c(SCC(C)O)c(Cc3cccc4ccccc34)sc21` (racemic) [Example 15, (±) 5-[(2-Hydroxypropyl)thio]-3-methyl-1-(2-methylpropyl)-6-(1-naphthalenylmethyl)thieno[2,3-d]pyrimidine-2,4(1H,3H)-dione], the melting point fell in the range of 126 to 128 °C.
